Consider 1 compound from US10717731B2, “Nitrogen-containing aromatic heterocyclic compound” (MITSUBISHI TANABE PHARMA CORPORATION, priority 2015, dated 2020).

For one assay, the target named is T1, human Cyp11B1 (Homo sapiens, UniProt P15538).
T1 sequence (P15538 25-503): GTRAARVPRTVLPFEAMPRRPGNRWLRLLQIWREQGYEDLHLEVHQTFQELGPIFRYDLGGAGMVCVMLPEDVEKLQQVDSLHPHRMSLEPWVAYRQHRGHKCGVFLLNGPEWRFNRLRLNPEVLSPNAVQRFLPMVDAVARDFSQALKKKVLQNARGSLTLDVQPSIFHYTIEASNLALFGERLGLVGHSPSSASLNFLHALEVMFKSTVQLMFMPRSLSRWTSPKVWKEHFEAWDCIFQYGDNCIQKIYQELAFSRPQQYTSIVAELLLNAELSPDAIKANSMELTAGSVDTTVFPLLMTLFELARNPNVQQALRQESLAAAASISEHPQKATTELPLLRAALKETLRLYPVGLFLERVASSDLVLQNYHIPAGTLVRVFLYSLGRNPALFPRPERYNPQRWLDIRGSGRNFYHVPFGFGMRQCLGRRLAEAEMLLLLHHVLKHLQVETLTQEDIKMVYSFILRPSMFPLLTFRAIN
Description: Selectivity: IC50 against human Cyp11B2 compared with human Cyp11B1. The class given is biochemical. To be noted: ratio of IC50 values (nM).

Another assay deals with T2, human CYP11B2 (Homo sapiens, UniProt P19099).
T2 construct: expressed in transfected cells; mitochondrial fraction
T2 sequence (P19099 25-503): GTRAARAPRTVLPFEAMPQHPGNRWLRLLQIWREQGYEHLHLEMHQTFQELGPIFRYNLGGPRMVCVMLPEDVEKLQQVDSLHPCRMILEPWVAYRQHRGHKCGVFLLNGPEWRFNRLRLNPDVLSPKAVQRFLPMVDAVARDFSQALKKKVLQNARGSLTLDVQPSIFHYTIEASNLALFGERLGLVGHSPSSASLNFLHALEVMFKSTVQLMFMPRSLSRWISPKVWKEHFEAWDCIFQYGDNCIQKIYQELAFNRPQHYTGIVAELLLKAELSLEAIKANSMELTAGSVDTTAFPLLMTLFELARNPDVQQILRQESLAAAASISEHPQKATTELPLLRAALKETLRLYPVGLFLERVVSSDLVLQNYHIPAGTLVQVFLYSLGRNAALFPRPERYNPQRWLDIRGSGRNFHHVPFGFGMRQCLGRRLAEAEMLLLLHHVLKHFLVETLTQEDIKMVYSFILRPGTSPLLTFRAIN
Briefly: Inhibitory effect on hCYP11B2: aldosterone production in mitochondrial fraction of V79 cells stably expressing human CYP11B2, HTRF. The format is biochemical. To be noted: 0.5 μmol/L deoxycorticosterone, 150 μmol/L NADPH, 1.5-2 hours at room temperature. As to the method: Experimental Example 1 (Inhibitory Effect on hCYP11B2)
The pcDNA3.1-human CYP11B2 plasmid was transfected into a Chinese hamster lung fibroblast V79 cell line to produce a cell line stably expressing human CYP11B2 gene.
The cells were cultured and grown in the Dulbecco's modified Eagle's/Ham's medium supplemented with 10% fetal bovine serum and 1% G418 disulfate solution under the environment of 37° C., 95% air, and 5% CO2, and the grown cells were harvested.
Then, the cells were fractionated to obtain mitochondria by reference to a method described in Chabre et al. JCE & M 85 (11) 4060-68, 2000. In particular, the cells suspended in a 5 mmol/L Tris-HCl buffer (pH 7.4) containing 250 mmol/L sucrose were homogenized in a Teflon (Registered Trademark) Potter Elvehjem homogenizer, and then the suspension was centrifuged (800×g, 15 min.). The supernatant was separated and again centrifuged (10000×g, 15 min.) to obtain a pellet (mitochondrial fraction).
The mitochondrial fraction diluted with a buffer containing 10 mmol/L KH2PO4, 10 mmol/L Tris, 20 mmol/L KCl, 25 mmol/L sucrose, 5 mmol/L MgCl2, and 0.05% bovine serum albumin was dispensed to a 96-well plate. 0.5 μmol/L Deoxycorticosterone, 150 μmol/L NADPH and a compound of each concentration were added to each well, and incubated for 1.5-2 hours at room temperature to produce aldosterone. An amount of the produced aldosterone in the incubated solution was determined by using HTRF (Homogeneous Time Resolved Fluorescence) method.
IC50 (nmol/L) was calculated by analyzing the aldosterone production inhibition rate (%) of each concentration of compounds by non-linear regression to a logistic curve.

Molecules are shown by their SMILES.

A word on the IC50: it is the point on the concentration scale where inhibition reaches its midpoint. Low values mean greater potency, high ones weaker potency. Consider `CC(C)NC(=O)CN1CCN(c2cncc(-c3ccc4cnn(C)c4c3)n2)CC1` [Example 49], for which the “IC50 value against human Cyp11B2 versus human Cyp11B1 (selectivity)” value at human Cyp11B1 is 100 times. Besides, the half-maximal inhibitory concentration (IC50) on human CYP11B2 was 7.5 nM.
